Reference: PubChem BioAssay AID216 (DTP/NCI, 2004)
Several values for one entry are separate records, joined by “and”; a condition that tells them apart may be missing. Equal entries are not always repeated. Toxic doses and inconclusive results are not listed. Numbered stars: 1 amine (or outer) side, 2 acyl side, 3 side chain; on linkers, the order of the positions; unused ones are H or OH. Bridge positions count the residues as written; N and C are the ends. Square brackets hold non-standard residues; d marks the D form. Peptide text beside a SMILES is read from it. I, II: the chains in the order shown. Actinocin(9to1) = Cc1c2oc3c(C)ccc(C(=O)[*:1])c3nc-2c(C(=O)[*:2])c(N)c1=O; aThr = C[C@H](O)[C@H](N)C(=O)O; NMeV = CN[C@H](C(=O)O)C(C)C; Sar = CNCC(=O)O

System: BDF1 mice, P288 leukemia ip, survival T/C
Assay: NCI In Vivo Anticancer Drug Screen. Data for tumor model P288 Lymphocytic Leukemia (intraperitoneal) in B6D2F1 (BDF1) mice
Details: higher = longer survival
Description: The antitumor activity of compounds was measured in mice bearing transplantable tumors. Survival or tumor size were measured and the results are expressed as the measurement made in the treated group (T) divided by the measurement made in the vehicle treated control group (C). The tumor model used in this assay is P288 Lymphocytic Leukemia (intraperitoneal) in B6D2F1 (BDF1) mice

[1] = endpoint: survival time, mean or median, dose: 2.0 mg/kg/injection, schedule: Q01DX010 (ip), vehicle: saline
[2] = endpoint: survival time, mean or median, dose: 4.0 mg/kg/injection, schedule: Q01DX010 (ip), vehicle: saline
[3] = endpoint: survival time, mean or median, dose: 8.0 mg/kg/injection, schedule: Q01DX010 (ip), vehicle: saline
[4] = endpoint: survival time, mean or median, dose: 16.0 mg/kg/injection, schedule: Q01DX010 (ip), vehicle: saline
[5] = endpoint: survival time, mean or median, dose: 0.63 mg/kg/injection, schedule: Q01DX Z (ip), vehicle: carboxymethylcellulose (CMC)
[6] = endpoint: survival time, mean or median, dose: 1.25 mg/kg/injection, schedule: Q01DX Z (ip), vehicle: carboxymethylcellulose (CMC)
[7] = endpoint: survival time, mean or median, dose: 2.5 mg/kg/injection, schedule: Q01DX Z (ip), vehicle: carboxymethylcellulose (CMC)

SMILES: Nc1nc(=S)c2[nH]cnc2[nH]1
- T/C (endpoint: survival time, mean or median, dose: 0.12 mg/kg/injection, schedule: Q01DX Z (ip), vehicle: carboxymethylcellulose (CMC)): 101 % of control
- T/C (endpoint: survival time, mean or median, dose: 0.25 mg/kg/injection, schedule: Q01DX Z (ip), vehicle: carboxymethylcellulose (CMC)): 105 % of control and 109 % of control
- T/C (endpoint: survival time, mean or median, dose: 0.5 mg/kg/injection, schedule: Q01DX Z (ip), vehicle: carboxymethylcellulose (CMC)): 111 % of control and 122 % of control and 86 % of control
- T/C (endpoint: survival time, mean or median, dose: 1.0 mg/kg/injection, schedule: Q01DX Z (ip), vehicle: carboxymethylcellulose (CMC)): 107 % of control and 100 % of control
- T/C (endpoint: survival time, mean or median, dose: 2.0 mg/kg/injection, schedule: Q01DX Z (ip), vehicle: carboxymethylcellulose (CMC)): 103 % of control and 117 % of control and 98 % of control
- T/C (endpoint: survival time, mean or median, dose: 2.5 mg/kg/injection, schedule: Q01DX010 (ip), vehicle: other): 115 % of control
- T/C (endpoint: survival time, mean or median, dose: 4.0 mg/kg/injection, schedule: Q01DX Z (ip), vehicle: carboxymethylcellulose (CMC)): 94 % of control
- T/C (endpoint: survival time, mean or median, dose: 5.0 mg/kg/injection, schedule: Q01DX010 (ip), vehicle: other): 110 % of control and 94 % of control
- T/C (endpoint: survival time, mean or median, dose: 10.0 mg/kg/injection, schedule: Q01DX010 (ip), vehicle: other): 94 % of control

SMILES: CN1CC[C@]23c4c5ccc(O)c4O[C@H]2C(=O)CC[C@H]3[C@H]1C5
- T/C (endpoint: survival time, mean or median, dose: 0.5 mg/kg/injection, schedule: Q01DX010 (ip), vehicle: saline): 106 % of control
- T/C (endpoint: survival time, mean or median, dose: 1.0 mg/kg/injection, schedule: Q01DX010 (ip), vehicle: saline): 118 % of control
- T/C [1]: 106 % of control
- T/C [2]: 100 % of control

SMILES: CO[C@@H]1[C@@H](OC2OC(C)C(OC3CC(C)(O)C(OC(=O)CC(C)C)C(C)O3)C(N(C)C)C2O)[C@@H](CC=O)C[C@@H](C)C(=O)/C=C/C2O[C@H]2C[C@@H](C)OC(=O)C[C@H]1OC(C)=O (stereo partly specified)
- T/C (endpoint: survival time, mean or median, dose: 37.5 mg/kg/injection, schedule: Q01DX010 (ip), vehicle: saline): 94 % of control
- T/C (endpoint: survival time, mean or median, dose: 50.0 mg/kg/injection, schedule: Q01DX010 (ip), vehicle: saline): 112 % of control
- T/C (endpoint: survival time, mean or median, dose: 75.0 mg/kg/injection, schedule: Q01DX010 (ip), vehicle: saline): 88 % of control
- T/C (endpoint: survival time, mean or median, dose: 100.0 mg/kg/injection, schedule: Q01DX010 (ip), vehicle: saline): 162 % of control
- T/C (endpoint: survival time, mean or median, dose: 150.0 mg/kg/injection, schedule: Q01DX010 (ip), vehicle: saline): 88 % of control
- T/C (endpoint: survival time, mean or median, dose: 200.0 mg/kg/injection, schedule: Q01DX010 (ip), vehicle: saline): 168 % of control
- T/C (endpoint: survival time, mean or median, dose: 300.0 mg/kg/injection, schedule: Q01DX010 (ip), vehicle: saline): 100 % of control

SMILES: C=CC(CN1CC1)OC(C)=O (stereo unspecified)
- T/C (endpoint: survival time, mean or median, dose: 0.47 mg/kg/injection, schedule: Q01DX Z (ip), vehicle: carboxymethylcellulose (CMC)): 109 % of control
- T/C (endpoint: survival time, mean or median, dose: 0.95 mg/kg/injection, schedule: Q01DX Z (ip), vehicle: carboxymethylcellulose (CMC)): 101 % of control
- T/C (endpoint: survival time, mean or median, dose: 1.9 mg/kg/injection, schedule: Q01DX Z (ip), vehicle: carboxymethylcellulose (CMC)): 115 % of control and 90 % of control
- T/C [1]: 94 % of control
- T/C (endpoint: survival time, mean or median, dose: 3.8 mg/kg/injection, schedule: Q01DX Z (ip), vehicle: carboxymethylcellulose (CMC)): 108 % of control
- T/C [2]: 94 % of control
- T/C [3]: 115 % of control
- T/C [4]: 115 % of control

SMILES: O=C1CCC(N2C(=O)c3ccccc3C2=O)C(=O)N1 (stereo unspecified)
- T/C (endpoint: survival time, mean or median, dose: 18.75 mg/kg/injection, schedule: Q01DX Z (ip), vehicle: carboxymethylcellulose (CMC)): 91 % of control
- T/C (endpoint: survival time, mean or median, dose: 37.5 mg/kg/injection, schedule: Q01DX Z (ip), vehicle: carboxymethylcellulose (CMC)): 94 % of control
- T/C (endpoint: survival time, mean or median, dose: 75.0 mg/kg/injection, schedule: Q01DX Z (ip), vehicle: carboxymethylcellulose (CMC)): 97 % of control
- T/C (endpoint: survival time, mean or median, dose: 150.0 mg/kg/injection, schedule: Q01DX Z (ip), vehicle: carboxymethylcellulose (CMC)): 101 % of control and 88 % of control
- T/C (endpoint: survival time, mean or median, dose: 300.0 mg/kg/injection, schedule: Q01DX Z (ip), vehicle: carboxymethylcellulose (CMC)): 94 % of control
- T/C (endpoint: survival time, mean or median, dose: 600.0 mg/kg/injection, schedule: Q01DX Z (ip), vehicle: carboxymethylcellulose (CMC)): 87 % of control

SMILES: CC[C@@H](c1ccc(O)cc1)[C@@H](CC)c1ccc(O)cc1
- T/C (endpoint: survival time, mean or median, dose: 31.0 mg/kg/injection, schedule: Q01DX Z (sc), vehicle: steriod suspending solution): 98 % of control
- T/C (endpoint: survival time, mean or median, dose: 62.5 mg/kg/injection, schedule: Q01DX Z (sc), vehicle: steriod suspending solution): 98 % of control
- T/C (endpoint: survival time, mean or median, dose: 125.0 mg/kg/injection, schedule: Q01DX Z (sc), vehicle: steriod suspending solution): 115 % of control and 97 % of control and 100 % of control
- T/C (endpoint: survival time, mean or median, dose: 250.0 mg/kg/injection, schedule: Q01DX Z (sc), vehicle: steriod suspending solution): 93 % of control and 98 % of control
- T/C (endpoint: survival time, mean or median, dose: 500.0 mg/kg/injection, schedule: Q01DX Z (sc), vehicle: steriod suspending solution): 107 % of control and 95 % of control
- T/C (endpoint: survival time, mean or median, dose: 1000.0 mg/kg/injection, schedule: Q01DX Z (sc), vehicle: steriod suspending solution): 93 % of control

SMILES: CCN(CCNc1ccc(C)c2sc3cc(Cl)ccc3c(=O)c12)CC(C)O (stereo unspecified)
- T/C (endpoint: survival time, mean or median, dose: 31.3 mg/kg/injection, schedule: Q01DX010 (ip), vehicle: saline): 112 % of control
- T/C (endpoint: survival time, mean or median, dose: 62.5 mg/kg/injection, schedule: Q01DX010 (ip), vehicle: saline): 94 % of control
- T/C (endpoint: survival time, mean or median, dose: 125.0 mg/kg/injection, schedule: Q01DX010 (ip), vehicle: saline): 105 % of control
- T/C (endpoint: survival time, mean or median, dose: 250.0 mg/kg/injection, schedule: Q01DX010 (ip), vehicle: saline): 118 % of control and 94 % of control

SMILES: Nc1ncnc2c1ccn2C1OC(CO)C(O)C1O (stereo unspecified)
- T/C (endpoint: survival time, mean or median, dose: 0.31 mg/kg/injection, schedule: Q01DX Z (ip), vehicle: carboxymethylcellulose (CMC)): 108 % of control and 92 % of control
- T/C [5]: 112 % of control and 93 % of control
- T/C [6]: 90 % of control
- T/C [7]: 106 % of control

SMILES: Cc1c2oc3c(C)ccc(C(=O)N[C@@H]4C(=O)N[C@H](C(C)C)C(=O)N5CCC[C@H]5C(=O)N(C)CC(=O)N(C)[C@@H](C(C)C)C(=O)O[C@H]4C)c3nc-2c(C(=O)N[C@@H]2C(=O)N[C@H](C(C)C)C(=O)N3CCC[C@H]3C(=O)N(C)CC(=O)N(C)[C@@H](C(C)C)C(=O)O[C@H]2C)c(N)c1=O (I: [aThr][dV]P[Sar][NMeV] / II: [aThr][dV]P[Sar][NMeV]; ester I:1-I:C, II:1-II:C; linker I:N-II:N via Actinocin(9to1))
- T/C (endpoint: survival time, mean or median, dose: 0.05 mg/kg/injection, schedule: Q01DX010 (ip), vehicle: other): 155 % of control

SMILES: N#C[C@@H]1C2C=CC(CC2)[C@H]1C#N
- T/C (endpoint: survival time, mean or median, dose: 0.25 mg/kg/injection, schedule: Q01DX010 (ip), vehicle: saline): 89 % of control
- T/C (endpoint: survival time, mean or median, dose: 63.0 micrograms/kg/injection, schedule: Q01DX010 (ip), vehicle: saline): 105 % of control
- T/C (endpoint: survival time, mean or median, dose: 125.0 micrograms/kg/injection, schedule: Q01DX010 (ip), vehicle: saline): 105 % of control
- T/C (endpoint: survival time, mean or median, dose: 500.0 micrograms/kg/injection, schedule: Q01DX010 (ip), vehicle: saline): 111 % of control

SMILES: C=C1C[C@H]2[C@@H]3C=C(C)C4=CC(=O)CC[C@]4(C)[C@H]3CC[C@]2(C)[C@@]1(OC(C)=O)C(C)=O
- T/C (endpoint: survival time, mean or median, dose: 62.5 mg/kg/injection, schedule: Q01DX010 (sc), vehicle: steriod suspending solution): 88 % of control
- T/C (endpoint: survival time, mean or median, dose: 125.0 mg/kg/injection, schedule: Q01DX010 (sc), vehicle: steriod suspending solution): 94 % of control

SMILES: CN1c2c(nc(N)[nH]c2=O)NCC1CCNc1ccc(C(=O)NC(CCC(=O)O)C(=O)O)cc1 (stereo unspecified)
- T/C (endpoint: median survival time, dose: 6.25 mg/kg/injection, schedule: Q01DX009 (ip), vehicle: other): 104 % of control
- T/C (endpoint: median survival time, dose: 12.5 mg/kg/injection, schedule: Q01DX009 (ip), vehicle: other): 104 % of control
- T/C (endpoint: median survival time, dose: 25.0 mg/kg/injection, schedule: Q01DX009 (ip), vehicle: other): 108 % of control
- T/C (endpoint: median survival time, dose: 50.0 mg/kg/injection, schedule: Q01DX009 (ip), vehicle: other): 116 % of control
- T/C (endpoint: median survival time, dose: 400.0 mg/kg/injection, schedule: Q01DX009 (ip), vehicle: other): 162 % of control
- T/C (endpoint: median survival time, dose: 800.0 mg/kg/injection, schedule: Q01DX009 (ip), vehicle: other): 100 % of control

SMILES: CC(CCC(C)OS(C)(=O)=O)OS(C)(=O)=O (stereo unspecified)
- T/C [5]: 100 % of control
- T/C [6]: 88 % of control
- T/C [1]: 90 % of control
- T/C [7]: 105 % of control
- T/C [2]: 90 % of control
- T/C (endpoint: survival time, mean or median, dose: 5.0 mg/kg/injection, schedule: Q01DX Z (ip), vehicle: carboxymethylcellulose (CMC)): 114 % of control
- T/C [3]: 100 % of control
- T/C (endpoint: survival time, mean or median, dose: 10.0 mg/kg/injection, schedule: Q01DX Z (ip), vehicle: carboxymethylcellulose (CMC)): 107 % of control
- T/C [4]: 104 % of control and 105 % of control and 90 % of control
- T/C (endpoint: survival time, mean or median, dose: 20.0 mg/kg/injection, schedule: Q01DX Z (ip), vehicle: carboxymethylcellulose (CMC)): 90 % of control
